Measured values reported in BindingDB's records for doi:10.1021/jm00101a009 (University of Minnesota, 1992).

Experiment: The compound was evaluated for binding affinity against Opioid receptor delta 1 in guinea pig brain membrane using [3H]- DPDPE as ligand

Which Ki does the source give for Oc1ccc2c3c1O[C@H]1c4[nH]c5ccccc5c4C[C@H]4C(C2)NCC[C@]314 here?
Its Ki is 935 nM.

For Oc1ccc2c3c1O[C@H]1c4[nH]c5ccccc5c4C[C@@]4(O)C(C2)N(CCc2ccccc2)CC[C@]314 [22-phenethyl-14-oxa-11,22-diazaheptacyclo[13.9.1.01,13.02,21.04,12.05,10.019,25]pentacosa-4(12),5(10),6,8,15(25),16,18-heptaene-2,16-diol], which Ki is on record?
Its Ki is 11 nM.

With Oc1ccc2c3c1O[C@H]1c4[nH]c5ccccc5c4C[C@@]4(O)C(C2)NCC[C@]314 as the compound, how does the Ki read?
The Ki was 11 nM.

With Oc1ccc2c3c1O[C@H]1c4[nH]c5ccccc5c4C[C@H]4C(C2)N(CCc2ccccc2)CC[C@]314 [22-phenethyl-14-oxa-11,22-diazaheptacyclo[13.9.1.01,13.02,21.04,12.05,10.019,25]pentacosa-4(12),5(10),6,8,15(25),16,18-heptaen-16-ol] as the compound, how does the Ki read?
Its Ki is 22 nM.
